Experimental data published in PubChem BioAssay (NCI).
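Method: 48-hour compound exposure of cells in 96-well plates, five concentrations, linear interpolation of endpoints. Abbreviation: GI50, concentration required for 50% inhibition of growth. TGI: total growth inhibition.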

Columns and labels:
Test in all cases: NCI tumour cell line growth inhibition, 48 h
[1] = test system: UACC-62 melanoma
[2] = test system: OVCAR-4 ovarian
[3] = test system: SK-MEL-2 melanoma
[4] = test system: TK-10 renal
[5] = test system: SNB-19 CNS
[6] = test system: SK-MEL-28 melanoma
[7] = test system: CAKI-1 renal
[8] = test system: LOX IMVI melanoma
[9] = test system: OVCAR-8 ovarian
[10] = test system: MALME-3M melanoma
[11] = test system: SK-MEL-5 melanoma
[12] = test system: 786-0 renal
[13] = test system: NCI/ADR-RES ovarian
[14] = test system: M14 melanoma
[15] = test system: COLO 205 colon
[16] = test system: UACC-257 melanoma
[17] = test system: DU-145 prostate
[18] = test system: NCI-H460 lung
[19] = test system: CCRF-CEM leukemia
[20] = test system: BT-549 breast
[21] = test system: SF-295 CNS
[22] = test system: HL-60(TB) leukemia
[23] = test system: SW-620 colon
[24] = test system: NCI-H23 lung
[25] = test system: HT29 colon
[26] = test system: RPMI-8226 leukemia
[27] = test system: SR leukemia
[28] = test system: HS 578T breast
[29] = test system: MCF7 breast
[30] = test system: MDA-MB-435
[31] = test system: KM12 colon
[32] = test system: HOP-62 NSCLC
[33] = test system: HCC-2998 colon
[34] = test system: RXF 393 renal
[35] = test system: MDA-MB-468 breast
[36] = test system: MOLT-4 leukemia
[37] = test system: SF-539 CNS
[38] = test system: SNB-75 CNS
[39] = test system: OVCAR-5 ovarian
[40] = test system: SF-268 CNS
[41] = test system: HCT-116 colon
[42] = test system: A498 renal
[43] = test system: HCT-15 colon
[44] = test system: IGROV1 ovarian
[45] = test system: EKVX NSCLC
[46] = test system: OVCAR-3 ovarian
[47] = test system: K-562 leukemia
[48] = test system: A549 NSCLC
[49] = test system: PC-3 prostate
[50] = test system: HOP-92 NSCLC
[51] = test system: MDA-MB-231 breast
[52] = test system: UO-31 renal
[53] = test system: SN12C renal
[54] = test system: NCI-H522 lung
[55] = test system: NCI-H226 lung
[56] = test system: U251 CNS
[57] = test system: ACHN renal
[58] = test system: SK-OV-3 ovarian

SMILES: Cn1cc(-c2nc(N)nnc2-c2c[nH]c3ccc(F)cc23)c2cc(Br)cnc21
- GI50 [1]: 32.3 nM
- TGI [1]: 12800 nM
- GI50 [2]: 3560 nM
- TGI [2]: 33000 nM
- GI50 [3]: 87.2 nM
- TGI [3]: 13600 nM
- GI50 [4]: 10600 nM
- TGI [4]: 25800 nM
- GI50 [5]: 139 nM
- TGI [5]: 12700 nM
- GI50 [6]: 161 nM
- TGI [6]: 19500 nM
- GI50 [7]: 76.4 nM
- TGI [7]: 17000 nM
- GI50 [8]: 63.5 nM
- TGI [8]: 14900 nM
- GI50 [9]: 192 nM
- TGI [9]: 12400 nM
- GI50 [10]: 52.5 nM
- TGI [10]: 18800 nM
- GI50 [11]: 40.2 nM
- TGI [11]: 1690 nM
- GI50 [12]: 145 nM
- TGI [12]: 18000 nM
- GI50 [13]: 155 nM
- TGI [13]: 1170 nM
- GI50 [14]: 87 nM
- TGI [14]: 16200 nM
- GI50 [15]: 73.7 nM
- TGI [15]: 886 nM
- GI50 [16]: 11800 nM
- TGI [16]: 25100 nM
- GI50 [17]: 144 nM
- TGI [17]: 14100 nM
- GI50 [18]: 45.8 nM
- TGI [18]: 3770 nM
- GI50 [19]: 109 nM
- TGI [19]: > 67100 nM
- GI50 [20]: 91.8 nM
- TGI [20]: 10100 nM
- GI50 [21]: 48.8 nM
- TGI [21]: 12300 nM
- GI50 [22]: 39 nM
- TGI [22]: 290 nM
- GI50 [23]: 48.7 nM
- TGI [23]: 15200 nM
- GI50 [24]: 198 nM
- TGI [24]: 11200 nM
- GI50 [25]: 50.6 nM
- TGI [25]: 615 nM
- GI50 [26]: 403 nM
- TGI [26]: > 100000 nM
- GI50 [27]: 38.8 nM
- TGI [27]: > 54900 nM
- GI50 [28]: 49.6 nM
- TGI [28]: 25800 nM
- GI50 [29]: 35.8 nM
- TGI [29]: 12300 nM
- GI50 [30]: 26.2 nM
- TGI [30]: 78.2 nM
- GI50 [31]: 50.8 nM
- TGI [31]: 13400 nM
- GI50 [32]: 85.8 nM
- TGI [32]: 19200 nM
- GI50 [33]: 156 nM
- TGI [33]: 5770 nM
- GI50 [34]: 47.1 nM
- TGI [34]: 236 nM
- GI50 [35]: 27.2 nM
- TGI [35]: 124 nM
- GI50 [36]: 161 nM
- TGI [36]: 14800 nM
- GI50 [37]: 46.2 nM
- TGI [37]: 405 nM
- GI50 [38]: 47.4 nM
- TGI [38]: 14100 nM
- GI50 [39]: 217 nM
- TGI [39]: 14600 nM
- GI50 [40]: 1460 nM
- TGI [40]: 18900 nM
- GI50 [41]: 52.1 nM
- TGI [41]: 13100 nM
- GI50 [42]: 13600 nM
- TGI [42]: 27100 nM
- GI50 [43]: 52.3 nM
- TGI [43]: 11600 nM
- GI50 [44]: 72.7 nM
- TGI [44]: 14300 nM
- GI50 [45]: 279 nM
- TGI [45]: 17700 nM
- GI50 [46]: 53 nM
- TGI [46]: 15700 nM
- GI50 [47]: 39.4 nM
- TGI [47]: > 100000 nM
- GI50 [48]: 172 nM
- TGI [48]: > 48400 nM
- GI50 [49]: 94.9 nM
- TGI [49]: 48900 nM
- GI50 [50]: 5930 nM
- TGI [50]: 30700 nM
- GI50 [51]: 121 nM
- TGI [51]: 8260 nM
- GI50 [52]: 276 nM
- TGI [52]: 13200 nM
- GI50 [53]: 204 nM
- TGI [53]: 13800 nM
- GI50 [54]: 19.3 nM
- TGI [54]: 231 nM
- GI50 [55]: 109 nM
- TGI [55]: 12700 nM
- GI50 [56]: 57.4 nM
- TGI [56]: 13000 nM
- GI50 [57]: 91.1 nM
- TGI [57]: 15400 nM
- GI50 [58]: 126 nM
- TGI [58]: 19600 nM
